{"source": "patent US4218436A", "about": "“Compounds and methods” (The Upjohn Company, priority 1979, dated 1980)", "key": {"[1]": {"system": "antiserum raised against 9-deoxy-9-methylene PGF2 (KLH Conjugate)", "experiment": "RIA cross-reactivity, displacement of [^3 H] PGE2 from antiserum (KLH Conjugate)", "type": "binding, rabbit", "details": "relative to PGE2; ng. required to displace 50% of [^3 H] PGE2", "method": "(§1) Five milligrams of KLH-PGE2 mimic conjugate is added to 2.25 ml. of sterile saline (0.9%) and 2.25 ml. of Freund's complete adjuvant and blended. 1.0 ml. of this mixture is injected subcutaneously at 20-30 sites on the flanks of four Albino New Zealand rabbits of 2-4 kg. mass. Each rabbit receives a dose of about 1 mg. On the same day, 1.0 ml. of attenuated pertussis vaccine is injected intramuscularly at four sites on the hindquarters of each rabbit.\n(§2) A known amount of PGE-type compound in 0.1 ml. PBSG buffer at pH 7.4±0.2 and 0.1 ml. of the radiolabeled form of the same PGE-type compound (10,000 cpm/0.1 ml. PBSG) are introduced into a 12×75 mm. polypropylene tube. Antiserum (0.1 ml.) against the corresponding mimic is added at a dilution which will bind 50%±3% of the radiolabeled authentic PGE-type compound in the absence of competition from the unlabeled PGE-type compound. The tube is incubated for 1 hour at 25° and then 12-16 hours at 4°. Antibody bound and free fractions are separated with dextran-coated charcoal. Other separation techniques are acceptable.\n(§3) The data below show the cross-reactivity of antiserum raised against 9-deoxy-9-methylene PGF2 to various PGE-type compounds, relative to PGE2. Percent crossreaction is defined as (ng. of PGE2 required to displace 50% of [^3 H] PGE2)/(ng. heterologous PG required to displace 50% of [^3 H] PGE2)×100."}, "[2]": {"system": "antiserum raised against 9-deoxy-9-methylene PGF2 (BSA Conjugate)", "experiment": "RIA cross-reactivity, displacement of [^3 H] PGE2 from antiserum (BSA Conjugate)", "type": "binding, rabbit", "details": "relative to PGE2; ng. required to displace 50% of [^3 H] PGE2", "method": "as §1, §2, §3"}}, "data": [{"smiles": "CCCCC[C@H](O)/C=C/[C@@H]1[C@@H](CCCCCCC(=O)O)[C@@H](O)C[C@H]1O", "note": "[PGF1 α]", "values": [{"measurement": "% Cross-Reaction KLH Conjugate", "setting": "[1]", "result": 0.09, "unit": "%"}, {"measurement": "% Cross-Reaction BSA Conjugate", "setting": "[2]", "result": 2.9, "unit": "%"}]}]}
